From patent publication US10772832B2, “Dry powder formulations for inhalation” (OTITOPIC INC., priority 2015, dated 2020) come the findings set out here.

Series [1] can be described thus: Anti-solvent suspension evaluation (filtration, residue weighing). The conditions noted are these: 5% w/w suspension, room temperature. In kind it is physicochemical. As to the method: After considering a number of factors in the end it was determined that only n-heptane and toluene fulfilled all the requirements, and therefore these were selected for further evaluation. Suspensions of acetylsalicylic acid at 5% w/w were prepared with the various anti-solvents, by charging the required amount of anti-solvent, charging the required amount of acetylsalicylic acid, and then stirring until a homogeneous suspension was obtained. The suspensions were qualitatively evaluated at room temperature and then filtered using a 0.45 μm membrane, which was then placed in an oven and dried at 60° C. until the solvent had completely evaporated. A quantitative analysis was performed on the residue that remained in the membrane by weighing the membrane before and after the test.

Series [2] can be described thus: Light microscopy particle size. In kind it is physicochemical. The text has this:
Rhodine 3040 US obtained from Rhodia Inc. was used for all experiments. Particles were dispersed in 0.1% w/w docusate sodium in water and observed under a light microscope to confirm particle size. Particles ranging from 66 to 280 μm were observed confirming data from certificate of analysis, though observed “rounding” of the particulates is indicative of partial dissolution in the aqueous dispersant.
Photomicrographs of the pre- and post-micronized uncoated particles were taken by dispersing them in a solution of 0.1% w/w docusate sodium in purified water USP, and using a digital imaging light microscope (Olympus BX51 with Clemex ST-2000 controller) at 400-times or 1000-times magnification.

Consider `CC(=O)Oc1ccccc1C(=O)O` [acetylsalicylic acid], for which, in series [1], the Behavior towards n-heptane result is given as “phobic behavior” and the Solubility in toluene result is given as “partially soluble”. Also, the “Reduction in the starting particle size by micronization” value in series [2] is given as “approximately 70 fold”.
